Results as given in patent publication US11555210B2, “Microbe having increased tolerance to phenolic fermentation inhibitors” (University of Ottawa, priority 2018, dated 2023).

How the values were obtained:
bna7Δ (YKB4649) [1] = assay: serial dilution spot assay on YPD agar plates; type: cell-based, S. cerevisiae; details: 10 mM FA, 35 mM 4-HBA or 1 mM CA, 48 hr at 30° C.
Protocol: (§1) In addition, deletion mutants were generated for genes involved in the tryptophan catabolic pathway and their growth was assayed on solid media containing 10 mM ferulic acid. In particular, wild type yeast (BY4741) along with deletion mutants aro8Δ (YKB4799), bna7Δ (YKB4649), bna2Δ (YKB4798), bna6Δ (YKB4844), bna5Δ (YKB4845), bna4Δ (YKB4846) and bna1Δ (YKB4729) were grown to mid log phase ([…] 0.5-0.6) in YPD medium prior to being diluted to an OD600 of 0.1. Four 10-fold serial dilutions were spotted onto YPD agar plates either containing 10 mM ferulic acid or no ferulic acid. Plates were incubated for 48 hr at 30° C. Images of the plates were taken with the ChemiDoc XRS Molecular Imaging system (Biorad) and images are representative of three biological replicates.
Experiments were also conducted to determine if deletion of BNA7 could provide protection to 4-hydroxybenzoic acid or coniferyl aldehyde (CA). Wild type (BY4741) and bna7A (YKB4649) strains were grown to mid log phase in YPD medium prior to being diluted into fresh medium to an OD600 of 0.1. Four 10-fold serial dilutions were spotted onto YPD agar plates containing either no compound (Untreated), 10 mM ferulic acid (FA), 35 mM 4-hydroxybenzoic acid (4-HBA) or 1 mM coniferyl aldehyde (CA). Plates were incubated for 48 hr at 30° C. and images are representative of three biological replicates.

wild-type yeast (BY4741) = assay: ROS measurement by H2DCFDA fluorescence microscopy; type: cell-based, S. cerevisiae; details: 2 mM CA, 1 hour at 30° C.; for subcellular distribution of induced ROS: 10 mM FA or 50 mM 4-HBA
Protocol: Measurement of ROS was performed as previously described (Kennedy et al., 2016, Sci Rep. 6, 19332). Briefly cells were incubated with 10 μM 2′,7′-dichlorodihydrofluorescein diacetate (H2DCFDA; Invitrogen cat. #D399) for 15 min in the dark. […] An aliquot of 5 μL was spotted onto glass slides and covered with a cover slip prior to imaging. All images were acquired using a Leica DMI 6000 florescent microscope (Leica Microsystems GmbH, Wetzler Germany), equipped with a Sutter DG4 light source (Sutter Instruments, California, USA), Ludl emission filter wheel with Chroma band pass emission filters (Ludl Electronic Products Ltd., NY, USA) and Hamamatsu Orca AG camera (Hamamatsu Photonics, Herrsching am Ammersee, Germany). Images were acquired at 0.2 μm steps across 6 μm using a 63× oil-immersion objective with a 1.4 numerical aperture. Analysis of H2DCFDA fluorescence was performed using Velocity Software V4 (Perkin Elmer). Image J software was used to quantify the H2DCFDA fluorescence signal in cells as described by Schneider et al (Schneider et al., 2012, Nature Methods, 9, 671-675) with a slight modification. Briefly, background fluorescence was subtracted from the images and the total fluorescence of all the cells in the image was measured and divided by the number of cells in the image. The images contained a minimum of 100 cells. The ratio of fluorescence per cell of treated cultures was divided by that of untreated cultures to eliminate background endogenous ROS production.

Zwf1-GFP = Zwf1-GFP fluorescence microscopy; type: cell-based, S. cerevisiae; details: 2 mM CA for 120 min at 30° C. (ρ=9.69E-5); ferulic acid 10 mM
Protocol: For the microscopy studies, wild type cells expressing endogenously tagged Zwf1-GFP (YKB4825) were grown to mid log in YPD, prior to being washed and resuspended in YPD medium (Untreated) or YPD medium containing 2 mM coniferyl aldehyde (CA) for 120 min at 30° C. Images (FIG. 8A) are representative of three independent experiments where a minimum of 100 cells each were imaged. Scale bar represents 10 μm.

[2] = test system: Saccharomyces cerevisiae ethanol red; details: commercial Saccharomyces cerevisiae ethanol red; Adeboye et al., 2014; cited from earlier work
bna7Δ (YKB4649) [3] = assay: automated growth curve analysis in YPD liquid medium; type: cell-based, S. cerevisiae; details: 10 mM ferulic acid, 30° C., 72 hr
Protocol: The agar-based chemogenomic screen was confirmed by measuring the growth rate of the identified mutants in liquid YPD medium supplemented with the phenolic compounds. Briefly, overnight cultures of the mutant strains were inoculated into fresh YPD medium and strains were incubated at 30° C. until they reached the mid log phase ([…] 0.5-0.6), prior to being diluted to a final OD600 of 0.1 in a BioScreen CTM Honeycomb microplate. The growth assays were performed for each mutant in triplicate in YPD alone (control) or YPD medium supplemented with ferulic acid, 4-hydroxybenzoic acid or coniferyl aldehyde. Using a BioScreen CTM plate reader, the cultures were incubated at 30° C. for 72 hours and OD600 readings were taken every 15 min to plot growth curves. Data from the BioScreen CTM were analyzed with the PRECOG software (Fernandez-Ricaud et al., […], Nucleic acids research. 41, W591-6) to obtain the doubling time of all the strains. A PRECOG score for each of the strains tested was calculated as the ratio of the doubling time in the presence of the phenolic to the doubling time in the absence of these phenolic compounds. Using a cut-off PRECOG score of >2 and <0.4 strains were identified that were sensitive or tolerant, respectively, to the phenolic compounds. […]

[4] = test system: mutants aro8Δ, bna2Δ, bna6Δ, bna5Δ, bna4Δ and bna1Δ; assay: serial dilution spot assay on YPD agar plates; type: cell-based, S. cerevisiae; details: 10 mM ferulic acid, 48 hr at 30° C.
Protocol: as §1

bna7Δ cells = assay: ROS measurement by H2DCFDA fluorescence microscopy; type: cell-based, S. cerevisiae; details: 10 mM ferulic acid for 2 hr; not statistically significant (ρ=0.756)
Protocol: For all microscopy experiments overnight cultures of wild-type yeast grown at 30° C. were re-suspended at an OD600 of 0.1 in YPD medium and allowed to reach mid-log phase prior to imaging. Measurement of ROS was performed as previously described (Kennedy et al., 2016, Sci Rep. 6, 19332). Briefly cells were incubated with 10 μM 2′,7′-dichlorodihydrofluorescein diacetate (H2DCFDA; Invitrogen cat. #D399) for 15 min in the dark. Cells were washed in sterile PBS to remove traces of the dye after which they were re-suspended in YPD medium alone, or YPD supplemented with either 2 mM coniferyl aldehyde, […]
Analysis of H2DCFDA fluorescence was performed using Velocity Software V4 (Perkin Elmer). Image J software was used to quantify the H2DCFDA fluorescence signal in cells as described by Schneider et al (Schneider et al., 2012, Nature Methods, 9, 671-675) with a slight modification. Briefly, background fluorescence was subtracted from the images and the total fluorescence of all the cells in the image was measured and divided by the number of cells in the image. […] The ratio of fluorescence per cell of treated cultures was divided by that of untreated cultures to eliminate background endogenous ROS production. […]

Compound: O=C(O)c1ccc(O)cc1 [4-hydroxybenzoic acid]
- resistance of bna7Δ / protection by deletion of BNA7 (bna7Δ (YKB4649) [1]): does not provide protection
- subcellular distribution of induced ROS (wild-type yeast (BY4741)): distributed throughout the cell
- Zwf1-GFP fluorescence signal/cell (Zwf1-GFP): no increase
- concentration at which the compound kills the yeast [2]: 11 mM

Compound: COc1cc(C=CC(=O)O)ccc1O [ferulic acid, 4-hydroxy-3-methoxycinnamic acid]
- growth (OD600) of bna7Δ relative to wild-type (bna7Δ (YKB4649) [3]): increased growth relative to the wild-type strain
- resistance of bna7Δ / protection by deletion of BNA7 (bna7Δ (YKB4649) [1]): resistant
- effect of gene deletion on ferulic acid tolerance [4]: no effect
- subcellular distribution of induced ROS (wild-type yeast (BY4741)): distributed throughout the cell
- ROS signal in bna7Δ compared to wild-type (bna7Δ cells): slight reduction of ROS
- Zwf1-GFP fluorescence signal/cell (Zwf1-GFP): no increase
- concentration at which the compound kills the yeast [2]: 5 mM

Compound: OO [hydrogen peroxide]
- ROS formation (H2DCFDA fluorescence) (wild-type yeast (BY4741); 10 mM FA, 50 mM 4-HBA or hydrogen peroxide): induced the formation of green fluorescence signal throughout the cell
